From patent US12503463B2, “Aliphatic acid amide derivative” (Sumitomo Pharma Co., Ltd., priority 2019, dated 2025)
Values belong to the compound of their own block, whether it stands above or below them.

Assays:
[1] = Test 3-1: metabolic stability test in human hepatic microsome; assay type: in vitro ADME; conditions: Test 3-1: microsome 0.1 mg/mL, test compound 0.1 μmol/L, 37° C., 30 minutes
Experimental: Test 3-1: Metabolic Stability Test in Human Hepatic Microsome
(§1) The metabolic stability of the present compound in human hepatic microsome was evaluated as mentioned below. Human hepatic microsome was obtained from Xenontech. Human hepatic microsome, NADPH, and each test compound were mixed in 25 mmol/L phosphate buffer solution (pH 7.4) to reach the following concentrations as shown below, and the mixture was incubated at 37° C. for 30 minutes. • Human hepatic microsome: 0.1 mg/mL • NAPDH: 3.2 mmol/L • Test compound: 0.1 μmol/L
(§2) The residual ratio of test compound in each sample after 30 minutes was measured by LC-MS, and the metabolic stability in human hepatic microsome was calculated from the following formula. Metabolic stability in human hepatic microsome(mL/min/mg protein)=−LN(residual ratio)/30/0.1

[2] = Test 3-2: metabolic stability test in human hepatic microsome (higher microsome concentration); assay type: in vitro ADME; conditions: Test 3-2: microsome 0.5 or 1.0 mg/mL, test compound 0.1 μmol/L, 30 or 60 minutes
Experimental: Test 3-2: Metabolic Stability Test in Human Hepatic Microsome
as §1, with “For more accurate evaluation of the metabolic stability in human hepatic microsome, the metabolic” for “The metabolic”, “evaluated at an appropriate concentration of human hepatic microsome” for “evaluated”, “for 60” for “for 30”, “microsome: 0.5 or 1.0” for “microsome: 0.1”
as §2, with “of a” for “of”, “30 or 60” for “30”, “ratio)/reaction time/concentration of human hepatic microsome” for “ratio)/30/0.1”

human 5-HT2A receptor [3] = molecular target: T1, human 5-HT2A receptor (Homo sapiens, UniProt P28223); assay: Test 1: binding activity for human 5-HT2A receptor ([3H]Ketanserin, CHO cell membrane fraction)
Experimental: (§3) Ki value was evaluated from dissociation constant which was calculated from saturated binding tests, and a substrate concentration, and it was used as an index for binding affinity.

human 5-HT7 receptor [4] = molecular target: T2, human 5-HT7 receptor (Homo sapiens, UniProt P34969); assay: Test 1: binding activity for human 5-HT7 receptor ([3H]SB-269970, CHO cell membrane fraction)
Experimental: as §3

human D2 receptor = molecular target: T3, human D2 receptor (Homo sapiens, UniProt P14416); assay: Test 1: binding activity for human D2 receptor ([3H]Spiperone, CHO cell membrane fraction); conditions: for D2 Ki/5-HT2A Ki / D2 Ki/5-HT7 Ki: ratio of Ki values
T3 construct: purchased PerkinElmer, Inc; host or cells: CHO cells (membrane fraction)
Experimental: as §3

human 5-HT2A receptor [5] = molecular target: T1, human 5-HT2A receptor; assay: Test 2: antagonist activity for human 5-HT2A receptor (aequorin luminescence, CHO-K1 cells); assay type: cell-based; conditions: Gα16
Experimental: (§4) Test 2: Evaluation of Antagonist Activity for Human 5-HT2A Receptor and Human 5-HT7 Receptor
(§5) Aequorin, Gα 16 protein, and each receptor were transiently expressed in CHO-K1 cells (Chinese hamster ovary). The cells were cultivated in a CO2 incubator at 37° C. overnight, seeded into a 384-well plate, and stood at room temperature for 2 hours. Each compound dissolved in DMSO was added thereto, and changes in luminescence were measured by FDSS/μCELL drug discovery screening support system (Hamamatsu Photonics K.K.). As for antagonist activity, inhibitory activity of each compound was calculated by setting the luminescence level of wells to which 10 μmol/L endogenous ligand was added as 100%.

human 5-HT7 receptor [6] = molecular target: T2, human 5-HT7 receptor; assay: Test 2: antagonist activity for human 5-HT7 receptor (aequorin luminescence, CHO-K1 cells); assay type: cell-based; conditions: Gα16
Experimental: as §4, §5

hERG channel = molecular target: T4, hERG channel (Homo sapiens, UniProt Q12809); assay: Test 5: inhibitory activity for hERG channel (whole cell patch clamp, hERG-CHO cells); assay type: cell-based
T4 construct: host or cells: hERG-CHO cells
Experimental: Test 5: Evaluation of Inhibitory Activity for hERG Channel
Inhibitory activity of the present compound for hERG channel was measured by whole cell patch clamp method with an auto patch clamp system using CHO cells in which hERG channel involved in human rapidly activating delayed rectifier potassium current (IKr) was forcibly expressed.
hERG-CHO cells purchased from ChanTest Cop. were cultured in a CO2 incubator at 37° C., and dissociated from a flask with trypsin shortly before the measurement of hERG current to prepare a cell suspension.
The cell suspension, the extracellular fluid, the intracellular fluid, and the measurement plate were set in an auto patch clamp system, and hERG current was measured by whole cell patch clamp method. […] Each pulse interval was 15 seconds. The data analysis was carried out with Qube Assay Software (Sophion Sophion). The test was carried out by applying incrementally 4 concentrations of each test compound, and the average of the maximum peak tail currents which were obtained from the last 3 stimulations in each concentration was determined as the evaluated data.

T3 sequence (P14416 whole entry): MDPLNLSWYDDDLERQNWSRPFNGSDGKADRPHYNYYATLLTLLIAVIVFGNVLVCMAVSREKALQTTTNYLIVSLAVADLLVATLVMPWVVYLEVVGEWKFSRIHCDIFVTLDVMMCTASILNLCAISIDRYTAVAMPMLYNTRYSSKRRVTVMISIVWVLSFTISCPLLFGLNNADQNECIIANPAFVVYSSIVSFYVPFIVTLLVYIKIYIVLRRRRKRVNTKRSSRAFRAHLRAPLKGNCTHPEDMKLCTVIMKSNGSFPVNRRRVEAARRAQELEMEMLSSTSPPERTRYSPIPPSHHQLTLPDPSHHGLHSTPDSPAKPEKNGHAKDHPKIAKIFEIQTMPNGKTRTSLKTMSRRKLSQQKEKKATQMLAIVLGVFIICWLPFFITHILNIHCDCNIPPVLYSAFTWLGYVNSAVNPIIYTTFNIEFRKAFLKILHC
T4 sequence (Q12809 whole entry): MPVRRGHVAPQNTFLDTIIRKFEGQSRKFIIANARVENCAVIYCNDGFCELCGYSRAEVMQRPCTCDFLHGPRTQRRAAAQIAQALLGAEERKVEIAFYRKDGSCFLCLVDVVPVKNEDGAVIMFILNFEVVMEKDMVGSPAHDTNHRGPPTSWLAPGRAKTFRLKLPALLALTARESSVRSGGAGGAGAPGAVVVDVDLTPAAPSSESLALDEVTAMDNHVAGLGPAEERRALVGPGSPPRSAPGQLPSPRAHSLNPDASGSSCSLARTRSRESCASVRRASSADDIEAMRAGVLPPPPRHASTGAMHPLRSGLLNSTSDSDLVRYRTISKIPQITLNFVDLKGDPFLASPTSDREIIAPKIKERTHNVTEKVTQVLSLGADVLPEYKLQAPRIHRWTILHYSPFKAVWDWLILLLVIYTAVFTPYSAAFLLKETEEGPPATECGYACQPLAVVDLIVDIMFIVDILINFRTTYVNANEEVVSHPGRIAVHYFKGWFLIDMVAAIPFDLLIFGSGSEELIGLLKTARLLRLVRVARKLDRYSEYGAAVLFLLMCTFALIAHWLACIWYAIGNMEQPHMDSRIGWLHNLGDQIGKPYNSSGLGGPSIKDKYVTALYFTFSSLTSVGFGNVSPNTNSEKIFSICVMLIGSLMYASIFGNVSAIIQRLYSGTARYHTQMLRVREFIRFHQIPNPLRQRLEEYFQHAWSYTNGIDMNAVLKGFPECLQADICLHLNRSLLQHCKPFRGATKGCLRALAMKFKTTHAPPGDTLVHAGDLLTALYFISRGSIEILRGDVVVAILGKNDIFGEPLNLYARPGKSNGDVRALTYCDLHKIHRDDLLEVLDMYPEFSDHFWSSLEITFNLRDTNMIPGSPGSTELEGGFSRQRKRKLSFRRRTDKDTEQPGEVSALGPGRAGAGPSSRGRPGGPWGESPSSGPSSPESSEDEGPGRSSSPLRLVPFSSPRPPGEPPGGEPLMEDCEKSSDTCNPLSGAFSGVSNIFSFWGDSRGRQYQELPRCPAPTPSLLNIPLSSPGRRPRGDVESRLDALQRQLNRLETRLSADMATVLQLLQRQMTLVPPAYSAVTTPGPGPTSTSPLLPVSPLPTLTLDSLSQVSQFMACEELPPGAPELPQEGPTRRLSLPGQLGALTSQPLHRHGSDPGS
T1 sequence (P28223 whole entry): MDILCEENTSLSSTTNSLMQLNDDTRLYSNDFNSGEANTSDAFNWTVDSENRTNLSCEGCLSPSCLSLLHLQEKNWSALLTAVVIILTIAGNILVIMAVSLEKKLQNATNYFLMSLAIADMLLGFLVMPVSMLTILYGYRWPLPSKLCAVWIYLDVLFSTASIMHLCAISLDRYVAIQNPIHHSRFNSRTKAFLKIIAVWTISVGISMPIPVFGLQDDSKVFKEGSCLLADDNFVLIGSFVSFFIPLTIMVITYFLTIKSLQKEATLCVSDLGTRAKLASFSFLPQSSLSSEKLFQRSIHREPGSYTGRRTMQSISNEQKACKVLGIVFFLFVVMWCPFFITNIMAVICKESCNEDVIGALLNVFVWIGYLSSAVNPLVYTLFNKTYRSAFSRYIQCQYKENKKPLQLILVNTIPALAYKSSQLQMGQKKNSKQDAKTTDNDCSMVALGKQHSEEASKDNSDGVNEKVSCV
T2 sequence (P34969 whole entry): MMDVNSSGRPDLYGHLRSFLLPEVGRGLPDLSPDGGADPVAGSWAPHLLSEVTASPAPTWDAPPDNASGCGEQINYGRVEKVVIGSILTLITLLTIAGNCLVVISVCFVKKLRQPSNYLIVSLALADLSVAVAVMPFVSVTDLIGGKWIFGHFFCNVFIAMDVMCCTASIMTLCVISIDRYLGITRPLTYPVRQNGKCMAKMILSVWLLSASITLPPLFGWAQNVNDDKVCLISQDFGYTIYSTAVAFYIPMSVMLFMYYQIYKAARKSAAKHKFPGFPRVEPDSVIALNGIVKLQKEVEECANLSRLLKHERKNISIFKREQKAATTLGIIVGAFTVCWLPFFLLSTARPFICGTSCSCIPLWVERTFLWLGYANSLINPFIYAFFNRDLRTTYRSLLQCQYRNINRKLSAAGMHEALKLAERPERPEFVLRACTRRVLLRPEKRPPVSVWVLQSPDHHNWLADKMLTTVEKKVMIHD

Metabolic stability in human hepatic microsome [1]: <0.05 mL/min/mg protein
Metabolic stability in human hepatic microsome [2]: 0.016 mL/min/mg protein
Compound: CCN(CCN1CCC(c2noc3cc(F)ccc23)CC1)S(=O)(=O)CCO [Example 51, N-Ethyl-N-{2-[4-(6-fluoro-1,2-benzoisoxazol-3-yl)piperidin-1-yl]ethyl}-2-hydroxyethane-1-sulfonamide]

Compound: CCN(CCN1CCC(c2noc3cc(F)ccc23)CC1)C(=O)C(O)CNC(C)=O (stereo not drawn) [Example 71, 3-Acetamide-N-ethyl-N-{2-[4-(6-fluoro-1,2-benzoisoxazol-3-yl)piperidin-1-yl]ethyl}-2-hydroxypropanamide]
Ki (human 5-HT2A receptor [3]): 0.0022 µM
Ki (human 5-HT7 receptor [4]): 0.0062 µM
Ki (human D2 receptor; human D2 receptor, [3H]Spiperone): 0.223 µM
D2 Ki/5-HT2A Ki (human D2 receptor): 99
D2 Ki/5-HT7 Ki (human D2 receptor): 36
IC50 (human 5-HT2A receptor [5]): 0.025 µM
IC50 (human 5-HT7 receptor [6]): 0.078 µM
Metabolic stability in human hepatic microsome [1]: <0.05 mL/min/mg protein
IC50 (hERG channel; hERG-CHO cells, auto patch clamp): > 10 µM
hERG inhibitory IC50 (nmol/L)/5-HT7 Ki (nmol/L) (hERG channel; ratio): >1624

Compound: CCN(CCN1CCC(c2noc3cc(F)ccc23)CC1)S(=O)(=O)C(C)CO (stereo not drawn) [Example 52]
D2 Ki/5-HT2A Ki (human D2 receptor): >34
D2 Ki/5-HT7 Ki (human D2 receptor): >30

Compound: CCN(CCN1CCC(c2noc3cc(F)ccc23)CC1)C(=O)C(O)CN (stereo not drawn) [Example 65, 3-Amino-N-ethyl-N-{2-[4-(6-fluoro-1,2-benzoisoxazol-3-yl)piperidin-1-yl]ethyl}-2-hydroxypropanamide]
D2 Ki/5-HT2A Ki (human D2 receptor): 48
D2 Ki/5-HT7 Ki (human D2 receptor): 26
Metabolic stability in human hepatic microsome [1]: <0.05 mL/min/mg protein

Metabolic stability in human hepatic microsome [1]: <0.05 mL/min/mg protein
Metabolic stability in human hepatic microsome [2]: 0.018 mL/min/mg protein
Compound: CCN(CCN1CCC(c2noc3cc(F)ccc23)CC1)C(=O)[C@H](C)O [Example 16, (2S)-N-Ethyl-N-{2-[4-(6-fluoro-1,2-benzoisoxazol-3-yl)piperidin-1-yl]ethyl}-2-hydroxypropanamide]

Metabolic stability in human hepatic microsome [1]: <0.05 mL/min/mg protein
Metabolic stability in human hepatic microsome [2]: 0.0025 mL/min/mg protein
Compound: CCN(CCN1CCC(c2noc3cc(F)ccc23)CC1)C(=O)CCO [Example 17, N-Ethyl-N-{2-[4-(6-fluoro-1,2-benzoisoxazol-3-yl)piperidin-1-yl]ethyl}-3-hydroxypropanamide]

Metabolic stability in human hepatic microsome [1]: <0.05 mL/min/mg protein
Compound: CCN(CCN1CCC(c2noc3cc(F)c(C)cc23)CC1)S(=O)(=O)CCO [Example 58]

Metabolic stability in human hepatic microsome [1]: <0.05 mL/min/mg protein
Compound: CCN(CCN1CCC(c2noc3cc(F)ccc23)CC1)C(=O)C(C)O (stereo not drawn) [Example 4]

Metabolic stability in human hepatic microsome [1]: <0.05 mL/min/mg protein
Compound: CC[C@@H](O)C(=O)N(CC)CCN1CCC(c2noc3cc(F)ccc23)CC1 [Example 29]

Metabolic stability in human hepatic microsome [1]: <0.05 mL/min/mg protein
Compound: CCN(CCN1CCC(c2noc3cc(F)ccc23)CC1)C(=O)C1CN(C)CCC1O (stereo not drawn) [Example 76, N-Ethyl-N-{2-[4-(6-fluoro-1,2-benzoisoxazol-3-yl)piperidin-1-yl]ethyl}-4-hydroxy-1-methylpiperidine-3-carboxamide]

Metabolic stability in human hepatic microsome [1]: <0.05 mL/min/mg protein
Compound: CCN(CCN1CCC(c2noc3cc(F)ccc23)CC1)C(=O)C(O)C(F)(F)F (stereo not drawn) [Example 34]

Metabolic stability in human hepatic microsome [1]: <0.05 mL/min/mg protein
Compound: CCN(CCN1CCC(c2c[nH]c3cc(F)ccc23)CC1)S(=O)(=O)CCO [Example 62]
